In the supplement of paper PMC6045584:
± gives the standard deviation of the averaged measurements.

Assays:
DASATINIB = compound: Cc1nc(Nc2ncc(C(=O)Nc3c(C)cccc3Cl)s2)cc(N2CCN(CCO)CC2)n1 [DASATINIB]; assay: surviving fraction relative to DMSO-only wells; higher = less growth inhibition; details: exposure time: 5 days
Summary of the method: (§1)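 Lines were retained only if, across three screens, replicate Pearson r was >0.7 and median Z' was >0.3. Viability was measured as CellTiter-Glo luminescence and reported as surviving fraction relative to the median of DMSO-only wells. Readings followed 10 minutes at room temperature, after log-phase tumour cells seeded at 250–500 per well in 384-well plates had been exposed, from 24 hours after seeding, continuously for five days to inhibitors at 0.5, 1, 5, 10, 50, 100, 500 and 1000 nM.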

[1] = compound: CCn1c(C(=O)N(C2CC2)C2CC2)cc2c3c(ncn3C)c(Nc3cc(C)n(C)n3)nc21; assay: as above; details: exposure time: 5 days
Summary of the method: as §1

Row | Test System | surviving fraction (DASATINIB; 0.5 nM) | surviving fraction (DASATINIB; 1 nM) | surviving fraction (DASATINIB; 5 nM) | surviving fraction (DASATINIB; 10 nM) | surviving fraction (DASATINIB; 50 nM) | surviving fraction (DASATINIB; 100 nM) | surviving fraction (DASATINIB; 500 nM) | surviving fraction (DASATINIB; 1000 nM) | surviving fraction ([1]; 0.5 nM) | surviving fraction ([1]; 1 nM) | surviving fraction ([1]; 5 nM) | surviving fraction ([1]; 10 nM) | surviving fraction ([1]; 50 nM) | surviving fraction ([1]; 100 nM) | surviving fraction ([1]; 500 nM) | surviving fraction ([1]; 1000 nM)
1 | S68 BREAST | 0.625 ± 0.11 | 0.51 ± 0.096 | 0.561 ± 0.11 | 0.419 ± 0.12 | 0.409 ± 0.029 | 0.418 ± 0.041 | 0.277 ± 0.053 | 0.298 ± 0.079 | 1.1 ± 0.39 | 0.683 ± 0.17 | 0.816 ± 0.16 | 0.974 ± 0.13 | 1.35 ± 0.11 | 0.945 ± 0.054 | 0.823 ± 0.016 | 0.817 ± 0.11
2 | CHLA90 AUTONOMIC GANGLIA | 0.801 ± 0.031 | 0.804 ± 0.059 | 0.737 ± 0.054 | 0.712 ± 0.025 | 0.735 ± 0.11 | 0.656 ± 0.091 | 0.711 ± 0.044 | 0.728 ± 0.026 | 0.986 ± 0.026 | 0.944 ± 0.037 | 0.905 ± 0.032 | 0.918 ± 0.095 | 0.961 ± 0.011 | 0.975 ± 0.003 | 0.945 ± 0.065 | 0.968 ± 0.026
3 | CASKI CERVIX | 0.732 ± 0.045 | 0.777 ± 0.052 | 0.69 ± 0.024 | 0.474 ± 0.03 | 0.121 ± 0.0042 | 0.0747 ± 0.0047 | 0.0433 ± 0.0023 | 0.0293 ± 0.00058 | 0.85 ± 0.039 | 0.932 ± 0.015 | 0.972 ± 0.055 | 0.946 ± 0.073 | 0.994 ± 0.049 | 1 ± 0.062 | 0.985 ± 0.029 | 1.04 ± 0.06
4 | HT1080 SOFT TISSUE | 0.975 ± 0.032 | 0.947 ± 0.043 | 0.918 ± 0.02 | 0.841 ± 0.046 | 0.61 ± 0.017 | 0.541 ± 0.017 | 0.428 ± 0.023 | 0.427 ± 0.01 | 1.01 ± 0.04 | 0.993 ± 0.015 | 1.004 ± 0.0098 | 1.039 ± 0.002 | 0.965 ± 0.023 | 1.01 ± 0.036 | 0.997 ± 0.036 | 0.969 ± 0.011
5 | KPD BONE | 0.909 ± 0.063 | 0.851 ± 0.053 | 0.781 ± 0.044 | 0.73 ± 0.0072 | 0.579 ± 0.039 | 0.481 ± 0.03 | 0.39 ± 0.016 | 0.336 ± 0.025 | 1.01 ± 0.074 | 0.951 ± 0.089 | 1.01 ± 0.043 | 0.991 ± 0.074 | 1.04 ± 0.047 | 1.01 ± 0.14 | 0.945 ± 0.017 | 0.99 ± 0.056
6 | HCC1954 BREAST | 0.362 ± 0.011 | 0.325 ± 0.035 | 0.282 ± 0.0039 | 0.351 ± 0.006 | 0.309 ± 0.022 | 0.173 ± 0.021 | 0.148 ± 0.0028 | 0.104 ± 0.019 | 0.868 ± 0.014 | 0.837 ± 0.18 | 0.999 ± 0.22 | 0.932 ± 0.18 | 0.92 ± 0.028 | 0.896 ± 0.013 | 0.764 ± 0.065 | 0.921 ± 0.085
7 | MDAMB468 BREAST | 0.872 ± 0.069 | 0.881 ± 0.038 | 0.909 ± 0.028 | 0.836 ± 0.11 | 0.858 ± 0.099 | 0.718 ± 0.065 | 0.488 ± 0.055 | 0.481 ± 0.055 | 0.984 ± 0.047 | 1.02 ± 0.059 | 1.05 ± 0.067 | 1.06 ± 0.09 | 1.05 ± 0.039 | 1.05 ± 0.074 | 0.985 ± 0.046 | 1.03 ± 0.095
8 | SNU475 LIVER | 0.799 ± 0.0098 | 0.774 ± 0.018 | 0.602 ± 0.021 | 0.519 ± 0.036 | 0.469 ± 0.02 | 0.349 ± 0.021 | 0.242 ± 0.025 | 0.255 ± 0.032 | 0.974 ± 0.012 | 0.957 ± 0.049 | 0.973 ± 0.025 | 0.989 ± 0.026 | 0.979 ± 0.051 | 0.959 ± 0.017 | 0.938 ± 0.0085 | 0.895 ± 0.039
9 | VCAP PROSTATE | 0.856 ± 0.048 | 0.89 ± 0.014 | 0.923 ± 0.026 | 0.943 ± 0.091 | 1.01 ± 0.12 | 1.02 ± 0.11 | 1.02 ± 0.061 | 0.932 ± 0.062 | 0.98 ± 0.059 | 1.05 ± 0.12 | 1.15 ± 0.09 | 1.03 ± 0.051 | 1.11 ± 0.11 | 1.13 ± 0.18 | 1.06 ± 0.078 | 1.06 ± 0.092
10 | NOS1 BONE | 0.817 ± 0.083 | 0.726 ± 0.086 | 0.587 ± 0.026 | 0.464 ± 0.021 | 0.296 ± 0.004 | 0.256 ± 0.028 | 0.2 ± 0.026 | 0.193 ± 0.014 | 1.09 ± 0.11 | 1.13 ± 0.12 | 1.14 ± 0.035 | 1.04 ± 0.1 | 1.12 ± 0.15 | 1.13 ± 0.088 | 1.06 ± 0.2 | 0.884 ± 0.16
11 | H23 LUNG | 0.924 ± 0.025 | 0.902 ± 0.065 | 0.823 ± 0.064 | 0.783 ± 0.052 | 0.597 ± 0.051 | 0.511 ± 0.067 | 0.288 ± 0.0063 | 0.256 ± 0.013 | 0.966 ± 0.048 | 0.982 ± 0.013 | 0.972 ± 0.025 | 0.981 ± 0.03 | 0.99 ± 0.015 | 0.981 ± 0.025 | 0.894 ± 0.021 | 0.903 ± 0.054
12 | SUM44 BREAST | 0.88 ± 0.035 | 0.824 ± 0.085 | 0.941 ± 0.062 | 0.865 ± 0.13 | 1.14 ± 0.23 | 1.12 ± 0.15 | 1.09 ± 0.13 | 0.99 ± 0.055 | 0.98 ± 0.056 | 1 ± 0.0096 | 1.04 ± 0.026 | 0.997 ± 0.086 | 1.03 ± 0.08 | 1.12 ± 0.025 | 1.02 ± 0.068 | 1.01 ± 0.057
13 | HCT15 LARGE INTESTINE | 0.827 ± 0.034 | 0.814 ± 0.04 | 0.789 ± 0.06 | 0.73 ± 0.094 | 0.702 ± 0.044 | 0.56 ± 0.034 | 0.363 ± 0.083 | 0.326 ± 0.046 | 0.987 ± 0.032 | 0.972 ± 0.011 | 0.944 ± 0.021 | 0.986 ± 0.011 | 1.05 ± 0.043 | 1.05 ± 0.031 | 1.06 ± 0.018 | 1.06 ± 0.03
14 | HU09 BONE | 0.863 ± 0.056 | 0.845 ± 0.025 | 0.805 ± 0.086 | 0.75 ± 0.056 | 0.392 ± 0.051 | 0.214 ± 0.019 | 0.129 ± 0.007 | 0.12 ± 0.018 | 1.06 ± 0.09 | 1.03 ± 0.11 | 1.09 ± 0.081 | 1.18 ± 0.22 | 1.25 ± 0.32 | 1 ± 0.072 | 0.915 ± 0.091 | 0.932 ± 0.064
15 | SUM149 BREAST | 0.774 ± 0.058 | 0.817 ± 0.082 | 0.607 ± 0.043 | 0.563 ± 0.036 | 0.292 ± 0.018 | 0.252 ± 0.011 | 0.177 ± 0.02 | 0.174 ± 0.018 | 1.04 ± 0.093 | 1.05 ± 0.12 | 1.07 ± 0.059 | 1.06 ± 0.026 | 1.04 ± 0.05 | 1.04 ± 0.16 | 1.06 ± 0.037 | 1.1 ± 0.16
16 | A549 LUNG | 0.915 ± 0.0066 | 0.9003 ± 0.0076 | 0.879 ± 0.02 | 0.859 ± 0.018 | 0.858 ± 0.033 | 0.8223 ± 0.0025 | 0.646 ± 0.028 | 0.631 ± 0.012 | 0.956 ± 0.034 | 0.941 ± 0.018 | 0.949 ± 0.02 | 0.963 ± 0.022 | 0.958 ± 0.057 | 1.024 ± 0.0095 | 1 ± 0.084 | 1.02 ± 0.03
17 | LM7 BONE | 0.732 ± 0.032 | 0.694 ± 0.031 | 0.616 ± 0.044 | 0.576 ± 0.028 | 0.443 ± 0.036 | 0.338 ± 0.014 | 0.206 ± 0.031 | 0.211 ± 0.008 | 0.967 ± 0.042 | 0.976 ± 0.03 | 1.07 ± 0.041 | 1.03 ± 0.097 | 1.04 ± 0.047 | 1.06 ± 0.073 | 0.994 ± 0.12 | 0.896 ± 0.03
18 | HCC1395 BREAST | 0.813 ± 0.065 | 0.961 ± 0.1 | 0.891 ± 0.068 | 0.902 ± 0.044 | 0.763 ± 0.093 | 0.704 ± 0.091 | 0.583 ± 0.067 | 0.591 ± 0.017 | 1.15 ± 0.067 | 1.06 ± 0.14 | 1.25 ± 0.057 | 1.16 ± 0.1 | 1.216 ± 0.0056 | 1.12 ± 0.21 | 0.973 ± 0.13 | 1.1 ± 0.16
19 | SG31 HEADNECK | 0.892 ± 0.091 | 0.878 ± 0.19 | 0.722 ± 0.013 | 0.649 ± 0.081 | 0.535 ± 0.02 | 0.44 ± 0.042 | 0.391 ± 0.045 | 0.373 ± 0.016 | 1.04 ± 0.069 | 1.02 ± 0.043 | 1.02 ± 0.12 | 0.875 ± 0.1 | 0.949 ± 0.13 | 1.08 ± 0.46 | 0.955 ± 0.16 | 0.961 ± 0.06
20 | SKBR3 BREAST | 0.718 ± 0.024 | 0.802 ± 0.1 | 0.722 ± 0.097 | 0.822 ± 0.063 | 1.01 ± 0.093 | 1.1 ± 0.086 | 1.13 ± 0.12 | 0.942 ± 0.022 | 0.949 ± 0.15 | 1.07 ± 0.11 | 0.955 ± 0.11 | 1.04 ± 0.12 | 1.08 ± 0.12 | 1.1 ± 0.049 | 1.04 ± 0.081 | 0.999 ± 0.14
